This is an account of results in US20100029612A1, “2-Aminoethyl Substituted Pyrimidin-2-Ones Cyclopropanes, Pyrazolines, Pyrimidines and Benzothiazepines and Their Uses as Urotensin II and Somatostatin 5 Receptor Ligands” (priority 2003, published 2010).

One data set addresses T1, UII receptor (Homo sapiens, UniProt Q9UKP6).
T1 construct: expressed in transfected cells; host or cells: NIH3T3 cells, receptor plasmid in PSI Mammalian Expression Vector (PROMEGA)
T1 sequence (Q9UKP6 1-389): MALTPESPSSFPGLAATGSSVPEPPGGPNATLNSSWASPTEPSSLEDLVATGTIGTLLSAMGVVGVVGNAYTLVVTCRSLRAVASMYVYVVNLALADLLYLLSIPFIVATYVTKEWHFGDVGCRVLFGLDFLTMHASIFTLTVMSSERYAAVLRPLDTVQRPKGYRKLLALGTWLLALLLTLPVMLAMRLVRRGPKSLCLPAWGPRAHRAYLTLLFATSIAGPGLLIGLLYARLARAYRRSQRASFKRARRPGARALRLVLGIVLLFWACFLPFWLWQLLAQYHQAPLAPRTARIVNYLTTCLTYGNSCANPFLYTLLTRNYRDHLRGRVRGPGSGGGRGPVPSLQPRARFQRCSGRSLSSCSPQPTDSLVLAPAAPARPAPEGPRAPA
Put plainly: R-SAT functional mammalian cell-based agonist assay, UII receptor. Particulars: for selectivity UII versus SST5 receptor (in words): UII and SST5 receptors; for UII Eff.: agonist efficacy; for UII Eff. / EC50 / UII pEC50: transfected NIH3T3 cells; for EC50 / UII pEC50: agonist; for EC50: read-out: UII pEC50 (converted); for agonist activity at the UII receptor (in words): potency similar to AC-7954. As to the method: (§1) The compounds I to VI were tested as agonist at the UII and SST5 receptors in the functional mammalian cell-based assay R-SAT, described in U.S. Pat. Nos. 5,707,798, 5,912,132, and 5,955,281.
(§2) R-SAT assays were performed using NIH3T3 cells grown in tissue culture treated rollerbottles to 40-50% confluence. Cells were transfected for 12-16 hours with plasmid DNAs using SUPERFECT (QIAGEN) as per manufacture's protocols. R-SAT's were generally performed with 10 μg/rollerbottle of receptor and 50 μg/rollerbottle of beta-galactosidase plasmid DNA. All receptor and G-protein constructs used were in the PSI Mammalian Expression Vector (PROMEGA). The transfected cells were then trypsinized and frozen in DMEM containing 10% DMSO. Frozen cells were later thawed, plated at 10,000-40,000 cells per well of a 96½ area plate that contained drug. Cells were then grown in a humidified atmosphere with 5% ambient CO2 for five days. Media was then removed from the plates and marker gene activity was measured by the addition of the beta-galactosidase substrate ONPG (in PBS with 5% NP-40). The resulting colorimetric reaction was measured in a spectrophotometric plate reader (Titertek Inc.) at […].

A short description of data set [1]: Stability to oxidation by air during storage. Format: physicochemical. As to the method:
A pyrazoline scaffold was prepared by the condensation of compound of formula VI of Example 1 with methylhydrazine in the presence of L-InCl3. […] The stereochemistry of the major isomer was confirmed as having an anti-configuration by the strong interaction between […] in the diethylamino chain and by the absence of any NOESY correlation between H4 (3.56 ppm) and H5 (3.98 ppm). […]

Another data set concerns the target T2, SST5 receptor (Homo sapiens, UniProt P35346).
T2 construct: expressed in transfected cells; host or cells: NIH3T3 cells, receptor plasmid in PSI Mammalian Expression Vector (PROMEGA)
Put plainly: R-SAT functional mammalian cell-based agonist assay, SST5 receptor. Particulars: transfected NIH3T3 cells; for SST5 Eff.: agonist efficacy; for EC50: agonist, read-out: SST5 pEC50 (converted). As to the method: as §1, §2

T2 sequence (P35346 whole entry): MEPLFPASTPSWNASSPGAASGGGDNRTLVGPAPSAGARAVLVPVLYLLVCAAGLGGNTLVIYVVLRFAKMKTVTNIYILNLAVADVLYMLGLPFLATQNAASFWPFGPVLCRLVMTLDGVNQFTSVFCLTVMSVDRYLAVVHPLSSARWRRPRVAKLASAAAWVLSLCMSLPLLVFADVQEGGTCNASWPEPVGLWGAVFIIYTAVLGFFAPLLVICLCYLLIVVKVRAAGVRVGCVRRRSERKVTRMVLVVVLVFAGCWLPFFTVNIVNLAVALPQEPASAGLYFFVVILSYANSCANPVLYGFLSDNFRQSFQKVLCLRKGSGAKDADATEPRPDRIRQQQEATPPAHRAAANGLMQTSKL

The compound `CCN(CC)CCc1c(-c2ccccc2)nc(-c2ccccc2)nc1-c1ccc(Cl)cc1` [IV, 4-(4-Chloro-phenyl)-5-(2-diethylamino-ethyl)-2,6-diphenyl-pyrimidine] returned a melting point of 90.5 to 92.3 °C.
Regarding `CCN(CC)CCC1=C(c2ccccc2)NC(=O)N(C)C1c1ccc(Cl)cc1` (stereo not drawn) [I], at UII receptor, the “selectivity UII versus SST5 receptor (in words)” value was “selective UII agonists”, the “UII Eff.” value came out at 68, the EC50 is 6.31 µM and the “agonist activity at the UII receptor (in words)” value (“agonist activity” below) was “partial to full agonists”.
As to `CCN(CC)CCC1C(c2ccccc2)=NN(C)C1c1ccc(Cl)cc1` (mixture of isomers) [III, anti/syn-5-(4-Chloro-phenyl)-4-(2-diethylamino-ethyl)-1-methyl-3-phenyl-4,5-dihydro-1H-pyrazole], the “stability of the pyrazoline core to oxidation by air” value in data set [1] is recorded as “stable to oxidation by air during storage”. In addition, on UII receptor, the “selectivity UII versus SST5 receptor (in words)” value is recorded as “selective UII agonists”, the “UII Eff.” value turned out to be 31, the “UII pEC50” value is given as 5.4 and the “agonist activity” value is given as “partial to full agonists”.
Take `CCN(CC)CC[C@@H]1C(c2ccccc2)=Nc2ccccc2S[C@H]1c1ccc(Cl)cc1` (relative stereo) [V, anti-2-(4-Chloro-phenyl)-3-(2-diethylamino-ethyl)-4-phenyl-2,3-dihydro-benzo-[b]-[1,4]-thiazepine]: at UII receptor, the “selectivity UII versus SST5 receptor (in words)” value is “activity at both the UII and SST5 receptors”; the “UII Eff.” value is 92; the EC50 was 5.01 µM; the “agonist activity” value is given as “partial to full agonists”. Besides, on SST5 receptor, the “SST5 Eff.” value came to 60 and the EC50 was 10 µM.
`CCN(CC)CCC(=Cc1ccc(Cl)cc1)C(=O)c1ccccc1` (mixture of isomers) [Starting material]: on UII receptor, the “selectivity UII versus SST5 receptor (in words)” value is “activity at both the UII and SST5 receptors”; the “UII Eff.” value worked out at 35; the EC50 was 1.58 µM; the “agonist activity” value was “partial to full agonists”. Moreover, at SST5 receptor, the “SST5 Eff.” value is reported as 41 and the EC50 was 6.31 µM.
On to `CN(C)CCC1(c2ccc(Cl)cc2)Cc2ccccc2C(=O)O1` (stereo not drawn) [AC-7954, reference compound], for which, at UII receptor, the “UII Eff.” value turned out to be 120 and the “UII pEC50” value turned out to be 5.7.
